In patent US7572606B1 (Nereus Pharmaceuticals, Inc., priority 2005, dated 2009):
Values joined by “and” are separate entries in the source; they are usually repeats but may differ in a detail not shown here. Equal entries are not always repeated. Where two headings read alike, the source gives them in different places.

Key:
[1] = biological target: T1, trypsin-like activity of rabbit muscle 20S proteasome (Oryctolagus cuniculus, UniProt G1SWK8); test: In vitro inhibition of 20S proteasome, Boc-LRR-AMC; type: biochemical; details: under the conditions tested
T1 construct: EC50 Trypsin-like; other: purified rabbit 20S proteasome, Boc-LRR-AMC; other: under the conditions tested
T1 sequence (G1SWK8 1-271): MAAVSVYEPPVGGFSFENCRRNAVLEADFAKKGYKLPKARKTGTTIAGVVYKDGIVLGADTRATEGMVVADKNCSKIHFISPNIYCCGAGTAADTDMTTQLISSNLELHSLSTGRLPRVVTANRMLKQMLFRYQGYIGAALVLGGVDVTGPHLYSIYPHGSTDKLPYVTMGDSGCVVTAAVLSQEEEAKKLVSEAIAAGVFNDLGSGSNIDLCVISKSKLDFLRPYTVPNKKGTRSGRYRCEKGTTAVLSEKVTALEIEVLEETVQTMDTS

[2] = biological target: caspase-like (PGPH) activity of rabbit muscle 20S proteasome (Oryctolagus cuniculus, UniProt A0A5F9DQW2); test: In vitro inhibition of 20S proteasome, Z-LLE-AMC; details: purified rabbit 20S proteasome, Z-LLE-AMC
[3] = system: NF-κB-mediated luciferase activity in HEK293 NF-κB/Luc cells; test: NF-κB-mediated luciferase reporter gene assay; type: cell-based, human; details: for luciferase activity upon TNF-α stimulation: pretreatment of NF-κB/Luc 293 cells; for EC50: Homo sapiens, HEK293, 1 h pretreatment, 6 h TNF-α stimulation, read-out: EC50
Protocol: The HEK293 NF-κB/luciferase reporter cell line is a derivative of the human embryonic kidney cell line (ATCC; CRL-1573) and carries a luciferase reporter gene under the regulation of 5×NF-κB binding sites. […] When performing the luciferase assay, the DMEM basal medium was replaced with phenol-red free DMEM basal medium and the G418 was omitted.
For NF-κB-mediated luciferase assays, HEK293 NF-κB/luciferase cells were seeded at 1.5×10^4 cells/well in 90 μl phenol-red free DMEM complete medium into Corning 3917 white opaque-bottom tissue culture plates. For Formulae II-2, II-4, II-5A and II-18, a 400 μM starting dilution was made in 100% DMSO and this dilution was used to generate an 8-point half log dilution series. […] For formula II-20, a 2.5 mM or 8 mM starting dilution was made in 100% DMSO and the final test concentrations ranged from 6.3 μM to 2.0 nM or 20 μM to 6.3 nM respectively. The plates were returned to the incubator for 1 hour. After 1 hr pretreatment, 10 μl of a 50 ng/ml TNF-α solution, prepared in the phenol-red free DMEM medium was added, and the plates were incubated for an additional 6 hours.
At the end of the TNF-α stimulation, 100 μl of Steady Lite HTS luciferase reagent (Packard Bioscience) was added to each well and the plates were left undisturbed for 10 min at room temperature before measuring the luciferase activity. The relative luciferase units (RLU) were measured by using a Fusion microplate fluorometer (Packard Bioscience).
NF-κB inducible luciferase activity was measured at 6 hours.

[4] = biological target: T2, chymotrypsin-like activity of rabbit muscle 20S proteasome (Oryctolagus cuniculus, UniProt G1T4Q9); test: In vitro inhibition of 20S proteasome, suc-LLVY-AMC
T2 sequence (G1T4Q9 1-263): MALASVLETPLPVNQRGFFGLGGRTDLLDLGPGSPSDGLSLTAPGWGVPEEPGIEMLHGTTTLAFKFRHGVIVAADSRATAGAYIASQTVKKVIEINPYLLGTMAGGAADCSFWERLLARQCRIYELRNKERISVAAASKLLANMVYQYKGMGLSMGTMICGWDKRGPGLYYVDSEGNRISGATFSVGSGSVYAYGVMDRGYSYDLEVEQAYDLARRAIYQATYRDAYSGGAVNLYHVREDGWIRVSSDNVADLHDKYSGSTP

[5] = system: RPMI 8226; test: Cell growth inhibition, resazurin, 48 h; details: Homo sapiens, RPMI-8226, 48 h, RPMI 8226, 48 h drug exposure
Protocol: RPMI 8226 (CCL-155), HT-29 (HTB-38), and B16-F10 (CRL-6475) cells were purchased from ATCC. RPMI 8226 cells were maintained in RPMI 1640 media supplemented with 10% (v/v) FBS, 2 mM L-glutamine, 1 mM sodium pyruvate and Penicillin/Streptomycin at 100 IU/ml and 100 μg/ml, respectively. HT-29 cells were maintained in McCoys 5A supplemented with 10% (v/v) FBS, 2 mM L-glutamine, 1 mM sodium pyruvate, 1% (v/v) non-essential amino acids, 10 mM HEPES and Penicillin/Streptomycin at 100 IU/ml and 100 μg/ml, respectively. B16-F10 cells were maintained in DMEM supplemented with 10% (v/v) FBS, 2 mM L-glutamine, 10 mM HEPES and Penicillin/Streptomycin at 100 IU/ml and 100 μg/ml, respectively.
RPMI 8226 cells were seeded at 2×10^4 cells/well in 90 μl RPMI media containing 10% (v/v) FBS or 1% (v/v) FBS into 96 well black-walled, clear-bottom tissue culture plates. […] Formulae II-16, II-17 and Formula II-18 were serially diluted in media containing 1% or 10% FBS and added in triplicate to the test wells. […] The final concentration of Formula II-18 ranged from 2 μM to 630 pM.

[6] = system: U266; test: Cell growth inhibition, resazurin, 48 h; type: cell-based, human; details: U266, 48 h drug exposure
[7] = system: HL-60/MX2; test: Cell growth inhibition, resazurin, 48 h; details: HL-60/MX2, 48 h drug exposure
Protocol: The DNA binding agent Mitoxantrone was included as a control, as HL-60/MX2 cells are reported to be resistant to this chemotherapeutic agent (Harker W. G. et al. 1989).
(§1) Concentrations ranging from 6.32 μM to 2 nM were tested for II-2 and II-4.

[8] = system: 20S proteasome chymotrypsin-like activity in RPMI 8226 cells; test: Chymotrypsin-like activity of 20S proteasomes in treated cells; type: cell-based, human; details: 1 hr, mean ± SD, n = 3
Protocol: RPMI 8226 (ATCC, CCL-155), the human multiple myeloma cell line, was cultured in RPMI 1640 medium supplemented with 2 mM L-glutamine, 100 units/ml penicillin, 100 μg/ml streptomycin, 1 mM sodium pyruvate and 10% heat inactivated fetal bovine serum at 37° C., 5% CO2 and 95% humidified air. […] DMSO was used as the vehicle control at a final concentration of 0.1%. Following 1 hr incubation of RMPI 8226 cells with the compounds, the cells were pelleted by centrifugation at 2,000 rpm for 10 sec at room temperature and washed 3× with ice-cold 1×Dulbecco's Phosphate-Buffered Saline (DPBS, Mediatech, Herndon, Va.). DPBS washed cells were lysed on ice for 15 min in lysis buffer (20 mM HEPES, 0.5 mM EDTA, 0.05% Triton X-100, pH 7.3) supplemented with protease inhibitor cocktail (Roche Diagnostics, Indianapolis, Ind.). Cell debris was pelleted by centrifugation at 14,000 rpm for 10 min, 4° C. and supernatants (=cell lysates) were transferred to a new tube. Protein concentration was determined by the BCA protein assay kit (Pierce Biotechnology, Rockford, Ill.). […] The total amount of protein used for each assay was 20 μg. The final concentration of Suc-LLVY-AMC and DMSO was 20 μM and 0.2%, respectively.

[9] = system: MES-SA/Dx5; test: Cell growth inhibition, resazurin, 48 h; details: human, 48 h
Protocol: as §1

[10] = read-out: EC50 Caspase-like (PGPH)

Sequence of caspase-like (PGPH) activity of rabbit muscle 20S proteasome (A0A5F9DQW2 1-212): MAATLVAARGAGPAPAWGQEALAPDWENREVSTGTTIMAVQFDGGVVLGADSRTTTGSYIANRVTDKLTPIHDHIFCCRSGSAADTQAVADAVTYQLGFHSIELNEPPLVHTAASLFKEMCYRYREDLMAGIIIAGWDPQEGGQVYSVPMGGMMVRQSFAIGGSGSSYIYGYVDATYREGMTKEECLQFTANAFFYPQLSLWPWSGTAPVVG

| Compound | inhibition of the trypsin-like activity of the 20S proteasome [1] | EC50 ([2]; read-out: EC50 Caspase-like) | luciferase activity upon TNF-α stimulation [3] | also measured |
| --- | --- | --- | --- | --- |
| CC12OC(=O)C1(C(=O)C1C=CCCC1)NC(=O)C2CCCl (stereo not drawn) [Formula II-13C] | able to inhibit the trypsin-like activity | > 20000 nM |  |  |
| C[C@@]12OC(=O)[C@]1([C@@H](O)[C@@H]1C=CCCC1)NC(=O)[C@@H]2CCO [Formula II-21] | able to inhibit the trypsin-like activity | 2300 nM | dose-dependent decrease of luciferase activity | EC50 [2, 10]: 2580 nM and 2330 nM |
| CCC(=O)OCC[C@H]1C(=O)N[C@@]2([C@@H](O)[C@@H]3C=CCCC3)C(=O)O[C@@]12C [Formula II-22] | able to inhibit the trypsin-like activity | 1400 nM | dose-dependent decrease of luciferase activity |  |
| CC[C@@]12OC(=O)[C@]1([C@@H](O)[C@@H]1C=CCCC1)NC(=O)[C@@H]2CCCl [Formula II-24C] | able to inhibit the trypsin-like activity | > 20000 nM | dose-dependent decrease of luciferase activity | EC50 ([4]; read-out: EC50 Chymotrypsin-like, purified rabbit 20S proteasome, suc-LLVY-AMC): 2200 nM |
| C[C@@]12OC(=O)[C@]1([C@H](O)[C@@H]1C=CCCC1)NC(=O)[C@@H]2CCCl [Formula II-25] |  |  |  | EC50 [5]: > 20000 nM; EC50 ([6]; Homo sapiens, U-266, 48 h): > 20000 nM; EC50 [3]: > 20000 nM |
| C[C@@]12OC(=O)[C@]1([C@@H](O)[C@@H]1C=CCCC1)NC(=O)[C@H]2CCCl [Formula II-26] | able to inhibit the trypsin-like activity |  | dose-dependent decrease of luciferase activity |  |
| C[C@@H]1C(=O)N[C@@]2([C@@H](O)[C@@H]3C=CCCC3)C(=O)O[C@@]12C [Formula II-28] |  | > 20000 nM |  |  |
| C[C@@]12OC(=O)[C@]1([C@@H](O)[C@@H]1C=CCCC1)NC(=O)[C@@H]2CCN=[N+]=[N-] [Formula II-29] | able to inhibit the trypsin-like activity |  | dose-dependent decrease of luciferase activity | EC50 [2, 10]: 535 nM and 520 nM |
| CCC[C@H]1C(=O)N[C@@]2([C@@H](O)[C@@H]3C=CCCC3)C(=O)O[C@@]12C [Formula II-30] | able to inhibit the trypsin-like activity | 1300 nM | dose-dependent decrease of luciferase activity | EC50 [2, 10]: 956 nM |
| C[C@@]12OC(=O)[C@]1(C(=O)C1=CC(O)CCC1)NC(=O)[C@]2(C)CCCl (stereo partly drawn) [Formula II-31] |  |  |  | EC50 [4]: > 20000 nM |
| COC(=O)CCSC(=O)[C@]1([C@@H](O)[C@@H]2C=CCCC2)NC(=O)[C@H](CCCl)[C@]1(C)O [Formula II-44] | able to inhibit the trypsin-like activity | 1400 nM | dose-dependent decrease of luciferase activity |  |
| C[C@@]12OC(=O)[C@]1([C@@H](O)[C@H]1CCC[C@H](Cl)[C@H]1O)NC(=O)[C@@H]2CCCl [Formula IV-3C] |  | > 20000 nM |  | EC50 [5]: > 20000 nM; EC50 ([6]; Homo sapiens, U-266, 48 h, read-out: EC50): 7760 nM; EC50 ([6]; read-out: EC50): 8290 nM; EC50 [3]: > 20000 nM |
| COC(=O)CCSC(=O)C1(C(O)C2C=CCCC2)NC(=O)C2CCOC21C (stereo not drawn) [Formula VI-1A] | able to inhibit the trypsin-like activity | 7900 nM and 8700 nM |  |  |
| O=C1c2c(O)ccc(O)c2C(=O)c2c(NCCNCCO)ccc(NCCNCCO)c21 [Mitoxantrone, reference compound] |  |  |  | EC50 [7]: 827 nM and 1340 nM and 1170 nM; EC50 ([7]; Homo sapiens, HL60/MX2, 48 h): 1410 nM |
| CC(C)[C@H](O)[C@@]12NC(=O)[C@H](C)[C@@H]1OC2=O [Omuralide, reference compound] |  |  |  | % inhibition of the chymotrypsin-like activity of 20S proteasomes in RPMI 8226 cell lysates ([8]; 1 nM): 5 ± 9%; % inhibition of the chymotrypsin-like activity of 20S proteasomes in RPMI 8226 cell lysates ([8]; 5 nM): 8 ± 9%; % inhibition of the chymotrypsin-like activity of 20S proteasomes in RPMI 8226 cell lysates ([8]; 10 nM): 4 ± 9%; % inhibition of the chymotrypsin-like activity of 20S proteasomes in RPMI 8226 cell lysates ([8]; 50 nM): 17 ± 11%; % inhibition of the chymotrypsin-like activity of 20S proteasomes in RPMI 8226 cell lysates ([8]; 100 nM): 32±8%; % inhibition of the chymotrypsin-like activity of 20S proteasomes in RPMI 8226 cell lysates ([8]; 500 nM): 68 ± 11%; % inhibition of the chymotrypsin-like activity of 20S proteasomes in RPMI 8226 cell lysates ([8]; 1,000 nM): 80 ± 8%; % inhibition of the chymotrypsin-like activity of 20S proteasomes in RPMI 8226 cell lysates ([8]; 10,000 nM): 93 ± 1% |
| CC(=O)O[C@H]1C(=O)[C@@]2(C)[C@H]([C@H](OC(=O)c3ccccc3)[C@]3(O)C[C@H](OC(=O)[C@H](O)[C@@H](NC(=O)c4ccccc4)c4ccccc4)C(C)=C1C3(C)C)[C@]1(OC(C)=O)CO[C@@H]1C[C@@H]2O [Paclitaxel, reference compound] |  |  |  | % cytotoxicity [9]: 78 ± 1% |
